Data reported in patent US20090035298A1 (priority 2007, published 2009).
Several values for one entry are separate records, joined by “and”; a condition that tells them apart may be missing. Identical values can stand only once. Like-named read-outs stand apart in the source and are kept apart here. Where no end group is shown, it is not given here.

Assays:
[1] = system: hippocampal ISF Aβ levels; type: in vivo, Tg2576 mice; conditions: for ISF Aβ levels, % of baseline by 12 hours / Effect on ISF Aβ levels versus vehicle treated mice: 3-4 month old Tg2576 mice; for ISF Aβ levels, % of baseline by 12 hours: n=5; for Effect on ISF Aβ levels versus vehicle treated mice: 50 mg/kg intraperitoneal, n=8 per group
[2] = system: neuronal activity in the hippocampus; set-up: species or system Tg2576 mice; conditions: mouse, in vivo

CRF (SEEPPISLDLTFHLLREVLEMARAEQLAQQAHSNRKLMEII; ends and bridges not checked; UniProt P06850 154-194, looked up)
ISF Aβ levels, % of baseline by 12 hours ([1]; 100 nM by reverse microdialysis in hippocampus): 138.3±7.027% and 138.3%
Time of increase of ISF Aβ levels after drug infusion ([1]; 100 nM in the microdialysis fluid): 3 h
ISF Aβ levels, % of baseline by 12 hours ([1]; 200 nM by reverse microdialysis in hippocampus): 171.9±17.83% and 171.9%
Time of increase of ISF Aβ levels after drug infusion ([1]; 200 nM in the microdialysis fluid): immediately
Dose dependence of increase in ISF Aβ levels ([1]; 100 and 200 nM by reverse microdialysis): dose-dependent manner

C[C@]12C[C@H](O)[C@H]3[C@@H](CCC4=CC(=O)CC[C@@]43C)[C@@H]1CC[C@@H]2C(=O)CO [CORT, Corticosterone]
Effect on ISF Aβ levels versus vehicle treated mice [1]: no difference
Effect on ISF Aβ levels versus vehicle treated mice ([1]; listed as Corticosterone): did not alter

NC1=N[C@H](O)[C@H]2[C@H]3O[C@]4(O)O[C@@H]([C@@H](O)[C@@]2(N1)[C@@H]4O)[C@]3(O)CO [TTX, Tetrodotoxin]
Change in ISF Aβ levels on 3 hours restraint stress given 8 hours after TTX treatment, compared to TTX-alone controls ([1]; mouse, in vivo): no significant change
Decrease of ISF Aβ levels over 16 hours compared to baseline ([1]; mouse, in vivo): ~60%
ISF Aβ levels for an additional 12 hours in the presence of TTX ([1]; mouse, in vivo): remained low
ISF Aβ levels, % of baseline by 17 hours from drug treatment ([1]; mouse, in vivo): 58.5%
Effect on neuronal activity in the hippocampus [2]: almost completely blocked
